Experimental data reported in ChEMBL document CHEMBL1201862, “PubChem BioAssay data set” (2004).
Active and inactive are the calls of the source.

Tests used:
NIH3T3 = test: NIH-3T3 viability with fluconazole co-treatment – cell-based, Alamar Blue, dry powder, set 2, cytotoxicity control for antifungal resistance reversal project, dose response (AID 488911); format: functional; conditions: Mus musculus
[1] = molecular target: Tyrosine-protein kinase receptor TYRO3 (Homo sapiens, UniProt Q06418); format: functional;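 note: TYRO3 value obtained as one member of a kinome-wide profiling panel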
[2] = molecular target: Dual specificity tyrosine-phosphorylation-regulated kinase 1B (Homo sapiens, UniProt Q9Y463); test: Navigating the Kinome. Panel member name: DYRK1B; format: functional
[3] = molecular target: Cyclin-dependent kinase 19 (Homo sapiens, UniProt Q9BWU1); test: Navigating the Kinome. Panel member name: CDC2L6; format: functional
[4] = molecular target: Vascular endothelial growth factor receptor 1 (Homo sapiens, UniProt P17948); format: functional;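 note: measured within a kinome-wide profiling panel, FLT1 as the panel member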
Protein Rev = Protein Rev (Human immunodeficiency virus type 1 group M subtype B (isolate HXB2)(HIV-1), UniProt P04618); test: blockers of HIV Rev/RRE RNA complex – biochemical, fluorescence polarization, HIV-1, dose response (AID 434976); set-up: species or system Human immunodeficiency virus 1
[5] = molecular target: Female germline-specific tumor suppressor gld-1 (Caenorhabditis elegans, UniProt Q17339); test: blockers of GLD-1/TGE RNA complex formation – biochemical, fluorescence polarization, C. elegans, dose response (AID 2802);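 note: fluorescence polarization of labeled TGE RNA bound by purified gld-1 protein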
Caspase-3 = molecular target: T1, Caspase-3 (Homo sapiens, UniProt P42574); test: activation of caspase-3 zymogen – biochemical, absorbance, dose response (AID 489014)
T1 sequence (P42574 whole entry): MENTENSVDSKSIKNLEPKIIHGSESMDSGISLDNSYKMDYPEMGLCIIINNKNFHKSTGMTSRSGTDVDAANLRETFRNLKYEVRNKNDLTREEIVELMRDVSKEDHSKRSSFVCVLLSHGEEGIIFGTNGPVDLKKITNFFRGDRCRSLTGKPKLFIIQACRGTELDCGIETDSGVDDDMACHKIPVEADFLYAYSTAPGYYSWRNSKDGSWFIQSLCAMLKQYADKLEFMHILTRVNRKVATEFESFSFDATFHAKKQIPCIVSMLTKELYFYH

Caspase-7 = Caspase-7 (Homo sapiens, UniProt P55210); test: activation of caspase-7 zymogen – biochemical, absorbance, counter-screen for procaspase-3 activator project, dose response (AID 489013)
[6] = molecular target: T2, Endoribonuclease toxin MazF (Escherichia coli K-12, UniProt P0AE70); test: activation of MazEF endoribonuclease cleavage – biochemical, fluorescence, single-stranded RNA substrate, uHTS hits, dose response (AID 588481); format: functional
[7] = molecular target: T2, Endoribonuclease toxin MazF; test: substrate-only fluorescence increase artefacts – biochemical, single-stranded RNase substrate, counter-screen for MazEF activator project, dose response (AID 588502); format: functional
Aurora kinase A = Aurora kinase A (Homo sapiens, UniProt O14965); format: functional;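 note: value from the Navigating the Kinome kinase panel profiling, panel entry STK6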
[8] = molecular target: Vascular endothelial growth factor receptor 2 (Homo sapiens, UniProt P35968); format: functional
Aurora kinase B = Aurora kinase B (Homo sapiens, UniProt Q96GD4); format: functional
[9] = molecular target: Cyclin-dependent kinase 8 (Homo sapiens, UniProt P49336); test: Navigating the Kinome. Panel member name: CDK8; format: functional
[10] = molecular target: Dual specificity protein kinase CLK4 (Homo sapiens, UniProt Q9HAZ1); format: functional
Sequence of Dual specificity protein kinase CLK4 (Q9HAZ1 whole entry): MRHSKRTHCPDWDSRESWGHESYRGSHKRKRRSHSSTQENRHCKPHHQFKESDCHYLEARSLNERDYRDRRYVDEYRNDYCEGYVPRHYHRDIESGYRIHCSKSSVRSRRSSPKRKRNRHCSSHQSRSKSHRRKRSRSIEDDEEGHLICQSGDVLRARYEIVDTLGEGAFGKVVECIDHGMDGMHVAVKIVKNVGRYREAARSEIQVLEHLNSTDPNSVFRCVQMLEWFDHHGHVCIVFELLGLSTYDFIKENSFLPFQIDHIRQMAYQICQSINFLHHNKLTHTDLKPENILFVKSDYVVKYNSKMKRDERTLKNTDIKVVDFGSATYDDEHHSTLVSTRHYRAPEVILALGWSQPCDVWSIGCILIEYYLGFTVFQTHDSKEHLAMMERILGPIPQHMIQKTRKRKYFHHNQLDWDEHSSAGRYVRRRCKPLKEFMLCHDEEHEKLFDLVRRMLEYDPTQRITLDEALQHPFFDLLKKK

T2 sequence (P0AE70 whole entry): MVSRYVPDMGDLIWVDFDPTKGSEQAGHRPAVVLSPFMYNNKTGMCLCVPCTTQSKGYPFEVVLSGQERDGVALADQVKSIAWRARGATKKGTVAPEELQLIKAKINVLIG
Sequence of Dual specificity tyrosine-phosphorylation-regulated kinase 1B (Q9Y463 whole entry): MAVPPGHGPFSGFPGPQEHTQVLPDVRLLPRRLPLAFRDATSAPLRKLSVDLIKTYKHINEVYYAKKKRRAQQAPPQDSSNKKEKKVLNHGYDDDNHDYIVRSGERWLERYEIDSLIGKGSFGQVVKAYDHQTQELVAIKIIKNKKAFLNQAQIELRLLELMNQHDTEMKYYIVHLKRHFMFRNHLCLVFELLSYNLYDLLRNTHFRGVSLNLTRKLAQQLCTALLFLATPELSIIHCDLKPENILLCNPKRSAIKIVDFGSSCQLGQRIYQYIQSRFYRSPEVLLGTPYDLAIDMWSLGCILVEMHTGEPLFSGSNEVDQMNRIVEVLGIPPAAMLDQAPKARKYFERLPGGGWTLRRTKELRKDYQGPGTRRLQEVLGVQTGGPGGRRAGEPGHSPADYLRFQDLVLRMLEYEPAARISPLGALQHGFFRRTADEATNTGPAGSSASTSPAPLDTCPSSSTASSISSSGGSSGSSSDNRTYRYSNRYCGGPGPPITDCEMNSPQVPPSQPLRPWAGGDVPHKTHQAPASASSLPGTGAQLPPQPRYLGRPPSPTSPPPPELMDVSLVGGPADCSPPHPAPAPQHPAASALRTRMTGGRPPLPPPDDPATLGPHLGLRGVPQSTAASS
Sequence of Cyclin-dependent kinase 8 (P49336 whole entry): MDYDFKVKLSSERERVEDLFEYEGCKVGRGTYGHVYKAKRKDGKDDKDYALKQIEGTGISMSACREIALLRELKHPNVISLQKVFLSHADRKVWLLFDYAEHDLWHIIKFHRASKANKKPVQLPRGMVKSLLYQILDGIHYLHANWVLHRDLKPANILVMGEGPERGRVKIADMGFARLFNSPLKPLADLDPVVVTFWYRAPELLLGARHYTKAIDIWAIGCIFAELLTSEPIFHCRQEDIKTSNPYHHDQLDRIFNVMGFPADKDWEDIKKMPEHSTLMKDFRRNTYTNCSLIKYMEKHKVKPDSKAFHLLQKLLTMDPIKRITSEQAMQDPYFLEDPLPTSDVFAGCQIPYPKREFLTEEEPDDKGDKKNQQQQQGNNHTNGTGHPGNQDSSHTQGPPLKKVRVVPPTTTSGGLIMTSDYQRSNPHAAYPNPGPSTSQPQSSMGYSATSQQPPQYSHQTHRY
Sequence of Tyrosine-protein kinase receptor TYRO3 (Q06418 whole entry): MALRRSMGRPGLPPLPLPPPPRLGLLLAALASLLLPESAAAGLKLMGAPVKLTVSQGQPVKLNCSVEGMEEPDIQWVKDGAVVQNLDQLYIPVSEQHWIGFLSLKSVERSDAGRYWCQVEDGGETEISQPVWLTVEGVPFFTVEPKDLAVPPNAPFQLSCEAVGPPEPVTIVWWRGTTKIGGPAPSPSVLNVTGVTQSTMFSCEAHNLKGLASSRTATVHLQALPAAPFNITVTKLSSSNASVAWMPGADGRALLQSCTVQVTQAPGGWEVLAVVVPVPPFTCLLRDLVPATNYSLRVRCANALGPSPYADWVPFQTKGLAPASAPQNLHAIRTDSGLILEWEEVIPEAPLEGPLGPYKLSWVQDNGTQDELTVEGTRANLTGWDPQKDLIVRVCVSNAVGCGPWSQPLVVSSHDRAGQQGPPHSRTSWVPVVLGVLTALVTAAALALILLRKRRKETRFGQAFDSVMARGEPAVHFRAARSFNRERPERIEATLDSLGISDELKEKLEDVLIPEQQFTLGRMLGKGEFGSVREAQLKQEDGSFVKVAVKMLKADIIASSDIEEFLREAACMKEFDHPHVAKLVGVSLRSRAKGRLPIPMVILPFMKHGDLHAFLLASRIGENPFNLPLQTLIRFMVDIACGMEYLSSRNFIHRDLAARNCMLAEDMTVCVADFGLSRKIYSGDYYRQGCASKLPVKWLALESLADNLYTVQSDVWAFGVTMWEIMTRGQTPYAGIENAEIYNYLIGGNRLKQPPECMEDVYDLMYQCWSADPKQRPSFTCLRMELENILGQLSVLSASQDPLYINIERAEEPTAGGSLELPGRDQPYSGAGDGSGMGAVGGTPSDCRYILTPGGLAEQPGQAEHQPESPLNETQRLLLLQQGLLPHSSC
Sequence of Protein Rev (P04618 whole entry): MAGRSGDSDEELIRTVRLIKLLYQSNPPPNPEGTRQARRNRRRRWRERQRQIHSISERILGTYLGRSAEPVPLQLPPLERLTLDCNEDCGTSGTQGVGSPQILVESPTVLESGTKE
Sequence of Aurora kinase B (Q96GD4 whole entry): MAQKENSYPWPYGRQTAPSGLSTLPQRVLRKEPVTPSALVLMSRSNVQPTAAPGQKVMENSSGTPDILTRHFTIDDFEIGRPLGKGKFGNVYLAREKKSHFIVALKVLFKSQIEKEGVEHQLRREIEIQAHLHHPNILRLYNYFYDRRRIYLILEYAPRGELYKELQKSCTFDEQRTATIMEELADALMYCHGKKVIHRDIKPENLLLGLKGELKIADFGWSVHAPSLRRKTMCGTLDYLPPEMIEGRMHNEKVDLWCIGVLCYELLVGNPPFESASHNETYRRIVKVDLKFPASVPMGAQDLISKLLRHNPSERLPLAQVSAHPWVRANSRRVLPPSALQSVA
Sequence of Vascular endothelial growth factor receptor 2 (P35968 whole entry): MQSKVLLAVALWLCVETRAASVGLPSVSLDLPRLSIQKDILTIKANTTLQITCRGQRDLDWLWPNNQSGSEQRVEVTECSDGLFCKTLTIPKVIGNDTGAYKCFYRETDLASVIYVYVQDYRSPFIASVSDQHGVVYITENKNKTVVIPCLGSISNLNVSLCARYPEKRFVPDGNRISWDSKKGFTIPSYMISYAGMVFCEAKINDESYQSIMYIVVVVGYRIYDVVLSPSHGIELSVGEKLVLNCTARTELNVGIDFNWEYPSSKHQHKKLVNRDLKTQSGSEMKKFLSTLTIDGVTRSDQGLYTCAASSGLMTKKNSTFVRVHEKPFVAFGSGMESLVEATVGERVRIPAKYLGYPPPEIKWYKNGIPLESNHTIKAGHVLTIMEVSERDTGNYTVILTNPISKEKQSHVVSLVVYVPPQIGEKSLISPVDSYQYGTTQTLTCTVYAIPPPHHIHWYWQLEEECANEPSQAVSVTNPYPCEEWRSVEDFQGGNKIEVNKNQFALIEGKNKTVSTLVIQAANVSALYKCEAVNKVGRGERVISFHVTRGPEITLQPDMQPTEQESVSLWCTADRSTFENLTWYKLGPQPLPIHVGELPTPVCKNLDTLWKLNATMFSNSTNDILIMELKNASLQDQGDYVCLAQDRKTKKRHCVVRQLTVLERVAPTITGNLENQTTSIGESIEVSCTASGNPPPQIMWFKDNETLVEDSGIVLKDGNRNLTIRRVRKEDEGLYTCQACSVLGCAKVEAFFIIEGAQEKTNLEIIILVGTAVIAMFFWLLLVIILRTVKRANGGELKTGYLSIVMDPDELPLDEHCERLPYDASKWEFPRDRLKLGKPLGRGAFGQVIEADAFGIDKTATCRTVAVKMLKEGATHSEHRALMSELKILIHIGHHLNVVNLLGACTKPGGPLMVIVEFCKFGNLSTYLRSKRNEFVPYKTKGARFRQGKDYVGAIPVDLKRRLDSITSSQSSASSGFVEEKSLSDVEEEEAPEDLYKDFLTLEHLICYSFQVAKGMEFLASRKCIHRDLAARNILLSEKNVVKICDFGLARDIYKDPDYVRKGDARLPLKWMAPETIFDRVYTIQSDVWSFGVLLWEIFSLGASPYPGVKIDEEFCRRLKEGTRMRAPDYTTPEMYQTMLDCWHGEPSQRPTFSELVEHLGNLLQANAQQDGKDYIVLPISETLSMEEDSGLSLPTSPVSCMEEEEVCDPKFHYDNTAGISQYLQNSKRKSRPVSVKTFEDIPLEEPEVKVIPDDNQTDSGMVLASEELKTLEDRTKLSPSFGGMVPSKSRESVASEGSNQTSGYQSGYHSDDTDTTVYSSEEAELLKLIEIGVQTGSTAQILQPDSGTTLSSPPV
Sequence of Aurora kinase A (O14965 whole entry): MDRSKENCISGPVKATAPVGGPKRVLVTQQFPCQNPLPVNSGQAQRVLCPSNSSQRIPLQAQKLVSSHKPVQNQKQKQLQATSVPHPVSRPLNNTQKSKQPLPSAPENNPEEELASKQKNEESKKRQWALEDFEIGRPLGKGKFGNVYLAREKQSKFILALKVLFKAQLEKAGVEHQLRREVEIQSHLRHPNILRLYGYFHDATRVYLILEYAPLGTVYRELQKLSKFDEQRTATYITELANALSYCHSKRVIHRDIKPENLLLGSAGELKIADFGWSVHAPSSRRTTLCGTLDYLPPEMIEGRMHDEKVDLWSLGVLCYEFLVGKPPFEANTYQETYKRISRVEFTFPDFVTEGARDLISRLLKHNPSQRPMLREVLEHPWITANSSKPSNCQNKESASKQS

O=C(O)Cn1nc(-c2ccccc2)c2ccccc21
AC50 (NIH3T3): > 260 µM (inactive)

O=C1NC(=S)N(c2ccccc2)C1=O
Ki [1]: 79.4 µM (active)
Ki [2]: 79.4 µM (active)

Cc1ccc(F)c(NC(=O)Nc2ccc(-c3coc4c(-c5cccnc5)cnc(N)c34)cc2)c1
Ki [3]: > 100 µM (inactive)
Ki [4]: 0.000251 µM (active)

CC(=O)Oc1cccc2c1C(=O)c1c(OC(C)=O)cc(C(=O)O)cc1C2=O [DIACEREIN]
IC50 (Protein Rev): > 75.4 µM (not active)
IC50 [5]: 7.31 µM (active)
EC50 (Caspase-3): 7.89 µM (active)
EC50 (Caspase-7): 14.8 µM (inactive)
EC50 [6]: > 99 µM (inactive)
EC50 [7]: > 99 µM (inactive)

COc1ccc(-c2cc(=O)c3c(O)c(OC)c(OC)cc3o2)cc1O [EUPATORIN]
Ki (Aurora kinase A): 1 µM (active)
Ki [8]: 0.794 µM (active)
Ki (Aurora kinase B): 0.0398 µM (active)

O=C(Nc1cccc2[nH]ncc12)NC1CCc2c1cccc2N1CCCC1 (stereo unspecified)
Ki [9]: 2.51 µM (active)
Ki [10]: 0.794 µM (active)
